{"source": "paper PMC4445981", "about": "“The glutamate transport inhibitor DL-Threo-β-Benzyloxyaspartic acid (DL-TBOA) differentially affects SN38- and oxaliplatin-induced death of drug-resistant colorectal cancer cells” (BMC Cancer, 2015)", "key": {"[1]": {"test_system": "[3H]-D-Asp uptake (glutamate transporter activity) in LoVo-PAR cells", "experiment": "[3H]-D-Asp uptake assay, LoVo-PAR", "format": "cell-based, human", "conditions": "LoVo-PAR, 100 nM [3H]-D-Asp, 6 min, 37 °C", "protocol": "(§1) We therefore next determined glutamate transporter activity (as uptake of the substrate [^3H]-D-Asp following a 6-min incubation in buffer supplemented with a tracer concentration of 100 nM [^3H]-D-Asp). […] To determine which transporter(s) was responsible for the [^3H]-D-Asp uptake, we assessed the effect of DL-TBOA, a nonselective inhibitor of EAATs, and UCPH-101, a specific SLC1A3 inhibitor [16, 28, 29]. […] Basal [^3H]-D-Asp uptake was decreased by about 60 % in SN38-resistant compared to parental HCT116 cells, whereas that in SN38-resistant LoVo cells was nearly tripled compared to parental LoVo cells.\n(§2) The [^3H]-D-Asp uptake assay was performed essentially as in [30]. Briefly, cells were split into poly-D-lysine-coated white 96-well plates (PerkinElmer). A similar number of cells were seeded for HCT116 parental, HCT116-SN38 and HCT116-Oxa cell lines (7 × 10^4 cells/well) and LoVo parental, Lovo-SN38 and Lovo-Oxa cell lines (6 × 10^4 cells/well). 16–24 h later, culture medium was aspirated, and cells were washed once with 100 μl assay buffer (Hank’s Buffered Saline Solution supplemented with 20 mM HEPES, 1 mM CaCl2 and 1 mM MgCl2, pH 7.4). 50 μl assay buffer supplemented with 100 nM [^3H]-D-Asp and test compounds as indicated was added, and the plate was incubated at 37 °C for 6 min. Non-specific [^3H]-D-Asp uptake was determined in wells with 3 mM L-glutamate. The assay mixture was quickly removed, and wells were washed with 2 × 100 μl ice-cold assay buffer, followed by 150 μl Microscint™20 scintillation fluid (PerkinElmer). The plate was shaken for 1 h and counted in a Wallac 1450 MicroBeta Trilux scintillation counter (GMI, Ramsey, MN)."}, "[2]": {"test_system": "[3H]-D-Asp uptake (glutamate transporter activity) in HCT116-PAR cells", "experiment": "[3H]-D-Asp uptake assay, HCT116-PAR", "format": "cell-based, human", "conditions": "HCT116-PAR, 100 nM [3H]-D-Asp, 6 min, 37 °C", "protocol": "as §1, §2"}, "[3]": {"test_system": "parental and drug-resistant HCT116 and LoVo cell lines", "experiment": "Nucleus (DAPI) counting of adherent cells, OPERA confocal", "format": "cell-based, human", "conditions": "DL-TBOA 70 or 350 μM with SN38 or oxaliplatin, 48 h", "protocol": "Cells were seeded in 96-well plates (Greiner Bio) one day prior to experiments. Cells were treated with chemotherapy and/or inhibitors as indicated and incubated for 48 h. Medium was aspirated, and cells were washed gently in ice cold PBS, fixed in 2 % paraformaldehyde, washed in PBS, and nuclei stained by 5 min incubation with DAPI. Plates were scanned using an OPERA high-throughput microscope (PerkinElmer). Nucleus counting was performed using proprietary OPERA software, based on 100 points per well, and cell counts from non-treated cells as controls.\nSupplementary file 12885_2015_1405_MOESM2_ESM.tiff: Additional file 2: Figure S2. Nucleus counting after treatment of parental and drug-resistant HCT116 and LoVo cells with DL-TBOA. Parental and drug-resistant HCT116 and LoVo cell lines seeded in 96-well dishes were exposed to SN38 (0.1 or 0.8 μM) or oxaliplatin (0.8 or 20 μM), alone or in combination with 70 or 350 μM DL-TBOA as indicated, for 48 h. Cells were washed in PBS, fixed in 2 % paraformaldehyde and nuclei were stained with DAPI. The number of adherent cells was determined by automated counting using an OPERA confocal microscope. (A-B) Parental HCT116 cells. (C) SN38 resistant HCT116 cells. (D) Oxaliplatin-resistant HCT116 cells. (E-F) Parental LoVo cells. (G) SN38 resistant LoVo cells. (H) Oxaliplatin-resistant LoVo cells. […]"}, "PARP-1 cleavage": {"test_system": "PARP-1 cleavage", "experiment": "PARP-1 cleavage by Western blotting", "format": "cell-based, human", "conditions": "DL-TBOA; HCT116 and LoVo cells", "protocol": "Cells were grown to a confluence of 60-80 % and treated with chemotherapy, siRNA- or plasmid transfection as indicated. Cells were washed once in PBS, lysed in lysis buffer (1 % SDS, 0.1 M Tris pH 7.5, and 1 mM Na3VO4), sonicated, and protein content determined (DC assay, BioRad). Lysates were mixed 2:1with NuPage LDS sample buffer (Invitrogen). SDS-PAGE was carried out in NOVEX chambers with NuPAGE 10 % Bis-Tris gels under reducing and denaturing conditions, using BenchMark protein ladder (Invitrogen), and 15 μg protein per lane. Proteins were transferred to PVDF membranes, which were Ponceau S stained, blocked for 1 h at 37 °C in 5 % nonfat dry milk in TBST (0.01 M Tris/HCl, 0.15 M NaCl, 0.1 % Tween 20, pH 7.4), incubated overnight at 4 °C with primary antibodies diluted in blocking buffer, washed in TBST, incubated with secondary antibodies for 1 h, washed in TBST, and developed using BCIP/NBT (KPL). Bands were scanned and quantified using UN-SCAN-IT (Silk Scientific).\nSupplementary file 12885_2015_1405_MOESM3_ESM.tiff: Additional file 3: Figure S3. […] Equal amounts of protein per lane were separated by SDS-PAGE and the protein levels of p21, and PARP-1 (full-length and cleaved, the latter indicated by arrowheads) were determined by Western blotting. […] Bottom: Densitometric quantifications based on 3 independent experiments per condition. […]"}, "SLC1A1": {"test_system": "SLC1A1", "conditions": "depending on the system and experimental setup; cited from earlier work"}, "SLC1A3": {"test_system": "SLC1A3", "conditions": "depending on the system and experimental setup; cited from earlier work"}, "[4]": {"test_system": "[3H]-D-Asp uptake in HCT116 and LoVo cells (parental and resistant)", "experiment": "[3H]-D-Asp uptake assay, summary over cell lines", "format": "cell-based, human", "conditions": "all cell lines; read-out: IC50 values, inhibition of basal [3H]-D-Asp uptake", "protocol": "as §1, §2"}, "[5]": {"conditions": "read-out: IC50, [3H]-D-Asp uptake"}}, "data": [{"smiles": "N[C@H](C(=O)O)[C@H](OCc1ccccc1)C(=O)O", "note": "(racemic) [TBOA, DL-Threo-β-Benzyloxyaspartic acid]", "values": [{"measurement": "pIC50 ± S.E.M., [3H]-D-Asp uptake", "setting": "[1]", "value": "5.84 ± 0.03"}, {"measurement": "IC50", "setting": "[1]; [5]", "value": 1.4, "unit": "µM"}, {"measurement": "pIC50 ± S.E.M., [3H]-D-Asp uptake", "setting": "[2]", "value": "5.75 ± 0.03"}, {"measurement": "IC50", "setting": "[2]; [5]", "value": 1.8, "unit": "µM"}, {"measurement": "effect on number of surviving adherent cells after chemotherapy", "setting": "[3]", "value": "opposite effects of DL-TBOA on SN38- and oxaliplatin-induced loss of viability are also evident"}, {"measurement": "effect on cellular level of cleaved PARP-1", "setting": "PARP-1 cleavage", "value": "did not significantly alter"}, {"measurement": "IC50 values in uptake assays", "setting": "SLC1A1", "value": "low micromolar range"}, {"measurement": "IC50 values in uptake assays", "setting": "SLC1A3", "value": "low micromolar range"}, {"measurement": "IC50", "setting": "[4]", "value": "~2", "unit": "µM"}]}]}
